# In article PMC10482691, “LTP induction by structural rather than enzymatic functions of CaMKII” (Nature, 2023):
# Several values for one entry are separate records, joined by “and”; a condition that tells them apart may be missing. Identical values can stand only once.
# Assays:
# AMPKα1(h) = AMPKα1(h) (Homo sapiens, UniProt Q13131); assay: Kinase selectivity panel (residual activity at 1 μM); format: biochemical; conditions: inhibitor at 1 μM; read-out: residual kinase activity in % of maximal activity
# Chain of AMPKα1(h) (Q13131 whole entry): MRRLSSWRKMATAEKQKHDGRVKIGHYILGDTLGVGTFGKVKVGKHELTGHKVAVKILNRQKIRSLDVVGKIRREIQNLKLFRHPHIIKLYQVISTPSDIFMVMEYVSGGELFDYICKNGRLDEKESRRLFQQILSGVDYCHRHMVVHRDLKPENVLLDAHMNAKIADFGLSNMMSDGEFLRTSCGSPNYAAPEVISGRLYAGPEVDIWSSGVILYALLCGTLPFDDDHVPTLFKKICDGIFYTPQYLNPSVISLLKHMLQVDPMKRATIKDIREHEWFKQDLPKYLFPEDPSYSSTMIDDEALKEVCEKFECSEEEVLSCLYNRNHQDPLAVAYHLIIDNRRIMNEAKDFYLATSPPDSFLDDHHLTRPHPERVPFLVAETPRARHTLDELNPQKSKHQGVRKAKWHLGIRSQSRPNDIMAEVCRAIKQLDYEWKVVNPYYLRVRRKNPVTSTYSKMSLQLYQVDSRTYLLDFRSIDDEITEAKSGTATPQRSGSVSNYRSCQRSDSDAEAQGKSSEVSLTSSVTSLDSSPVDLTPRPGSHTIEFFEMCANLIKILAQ
# Chain of AMPKα1(h) (Q9Y478 whole entry partner): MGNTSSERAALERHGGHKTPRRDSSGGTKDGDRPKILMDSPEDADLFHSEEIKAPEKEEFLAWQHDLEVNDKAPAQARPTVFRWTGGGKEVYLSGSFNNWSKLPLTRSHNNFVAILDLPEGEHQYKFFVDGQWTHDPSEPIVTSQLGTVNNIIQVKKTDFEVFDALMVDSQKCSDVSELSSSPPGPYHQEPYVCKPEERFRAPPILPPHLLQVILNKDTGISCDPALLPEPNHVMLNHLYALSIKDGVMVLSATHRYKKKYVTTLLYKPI
# Chain of AMPKα1(h) (P54619 whole entry partner): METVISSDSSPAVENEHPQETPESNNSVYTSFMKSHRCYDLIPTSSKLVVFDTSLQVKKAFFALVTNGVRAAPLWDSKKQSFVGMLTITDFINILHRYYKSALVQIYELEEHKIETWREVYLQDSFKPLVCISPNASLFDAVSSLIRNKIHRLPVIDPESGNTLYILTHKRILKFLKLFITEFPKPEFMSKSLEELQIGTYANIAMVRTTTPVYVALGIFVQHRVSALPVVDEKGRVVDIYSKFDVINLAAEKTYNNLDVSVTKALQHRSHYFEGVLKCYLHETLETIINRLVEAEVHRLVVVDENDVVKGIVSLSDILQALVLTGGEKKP
# CDK5/p35(h) = CDK5/p35(h) (Homo sapiens, UniProt Q00535); assay: as above; format: biochemical; conditions: inhibitor at 1 μM; read-out: residual kinase activity in % of maximal activity
# Chain of CDK5/p35(h) (Q00535 whole entry): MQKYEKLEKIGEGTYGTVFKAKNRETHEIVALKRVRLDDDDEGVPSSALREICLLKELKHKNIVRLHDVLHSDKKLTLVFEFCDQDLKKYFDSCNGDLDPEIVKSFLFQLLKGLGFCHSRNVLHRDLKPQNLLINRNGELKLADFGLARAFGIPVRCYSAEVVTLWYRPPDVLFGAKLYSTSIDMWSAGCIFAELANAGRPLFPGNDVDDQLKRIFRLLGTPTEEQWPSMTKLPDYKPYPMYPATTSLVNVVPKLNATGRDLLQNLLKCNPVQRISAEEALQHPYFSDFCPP
# Chain of CDK5/p35(h) (Q15078 whole entry partner): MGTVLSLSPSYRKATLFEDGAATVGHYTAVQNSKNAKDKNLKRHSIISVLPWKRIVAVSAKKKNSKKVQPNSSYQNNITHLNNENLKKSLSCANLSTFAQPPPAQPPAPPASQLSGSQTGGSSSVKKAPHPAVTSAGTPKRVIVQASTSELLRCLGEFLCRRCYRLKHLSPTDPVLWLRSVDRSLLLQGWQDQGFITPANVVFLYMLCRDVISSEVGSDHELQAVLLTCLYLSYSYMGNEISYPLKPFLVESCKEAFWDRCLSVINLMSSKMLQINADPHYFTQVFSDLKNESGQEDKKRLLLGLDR
# mTOR(h) = mTOR(h) (Homo sapiens, UniProt P42345); assay: as above; format: biochemical; conditions: inhibitor at 1 μM; read-out: residual kinase activity in % of maximal activity
# FGFR1(h) = FGFR1(h) (Homo sapiens, UniProt P11362); assay: as above; format: biochemical; conditions: inhibitor at 1 μM; read-out: residual kinase activity in % of maximal activity
# Chain of FGFR1(h) (P11362 22-822): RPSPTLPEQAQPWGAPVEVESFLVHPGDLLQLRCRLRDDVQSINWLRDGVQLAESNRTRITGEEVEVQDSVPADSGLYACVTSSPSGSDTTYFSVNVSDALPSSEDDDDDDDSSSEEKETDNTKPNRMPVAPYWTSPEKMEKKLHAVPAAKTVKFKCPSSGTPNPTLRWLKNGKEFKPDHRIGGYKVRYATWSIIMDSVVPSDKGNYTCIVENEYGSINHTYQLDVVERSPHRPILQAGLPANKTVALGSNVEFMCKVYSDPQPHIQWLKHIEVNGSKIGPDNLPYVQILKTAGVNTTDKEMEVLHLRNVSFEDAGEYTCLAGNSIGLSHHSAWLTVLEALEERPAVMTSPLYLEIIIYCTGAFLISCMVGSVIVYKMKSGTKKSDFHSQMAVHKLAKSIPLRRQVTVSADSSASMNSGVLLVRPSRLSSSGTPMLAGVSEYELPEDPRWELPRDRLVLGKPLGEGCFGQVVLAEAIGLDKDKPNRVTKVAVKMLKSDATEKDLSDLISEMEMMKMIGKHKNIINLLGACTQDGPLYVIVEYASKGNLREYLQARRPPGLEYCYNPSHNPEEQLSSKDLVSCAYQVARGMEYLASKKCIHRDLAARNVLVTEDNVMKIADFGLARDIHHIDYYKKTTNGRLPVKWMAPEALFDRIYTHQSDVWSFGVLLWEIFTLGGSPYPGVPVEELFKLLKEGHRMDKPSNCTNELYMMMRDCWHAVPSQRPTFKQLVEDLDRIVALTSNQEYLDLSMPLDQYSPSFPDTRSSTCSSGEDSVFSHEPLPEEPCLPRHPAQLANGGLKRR
# CaMKIV(h) = CaMKIV(h) (Homo sapiens, UniProt Q16566); assay: as above; format: biochemical; conditions: inhibitor at 1 μM; read-out: residual kinase activity in % of maximal activity
# Chain of CaMKIV(h) (Q16566 whole entry): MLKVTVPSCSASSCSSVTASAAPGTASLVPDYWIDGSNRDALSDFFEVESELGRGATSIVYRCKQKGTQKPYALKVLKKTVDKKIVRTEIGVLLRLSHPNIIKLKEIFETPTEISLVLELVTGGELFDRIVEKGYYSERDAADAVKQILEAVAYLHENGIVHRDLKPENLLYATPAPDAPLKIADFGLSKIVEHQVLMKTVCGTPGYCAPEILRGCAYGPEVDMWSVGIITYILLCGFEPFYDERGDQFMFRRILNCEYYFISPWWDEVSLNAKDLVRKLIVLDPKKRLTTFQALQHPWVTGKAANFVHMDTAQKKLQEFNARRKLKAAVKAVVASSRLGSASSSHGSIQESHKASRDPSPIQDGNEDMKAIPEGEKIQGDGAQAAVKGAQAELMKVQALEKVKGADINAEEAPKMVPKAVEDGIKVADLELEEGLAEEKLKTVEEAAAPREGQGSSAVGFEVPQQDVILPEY
# CaMKI(h) = CaMKI(h) (Homo sapiens, UniProt Q14012); assay: as above; format: biochemical; conditions: inhibitor at 1 μM; read-out: residual kinase activity in % of maximal activity
# Chain of CaMKI(h) (Q14012 whole entry): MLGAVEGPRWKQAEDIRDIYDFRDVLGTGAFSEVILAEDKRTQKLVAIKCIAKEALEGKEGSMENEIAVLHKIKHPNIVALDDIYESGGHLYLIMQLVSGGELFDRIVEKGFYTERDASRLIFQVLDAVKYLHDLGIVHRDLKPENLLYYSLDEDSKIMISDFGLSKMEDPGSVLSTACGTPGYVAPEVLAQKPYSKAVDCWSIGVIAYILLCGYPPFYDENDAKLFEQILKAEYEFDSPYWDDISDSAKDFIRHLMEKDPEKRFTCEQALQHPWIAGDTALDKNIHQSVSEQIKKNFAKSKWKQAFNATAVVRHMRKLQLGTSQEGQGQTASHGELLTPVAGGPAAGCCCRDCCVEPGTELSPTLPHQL
# Aurora-C(h) = Aurora-C(h) (Homo sapiens, UniProt Q9UQB9); assay: as above; format: biochemical; conditions: inhibitor at 1 μM; read-out: residual kinase activity in % of maximal activity
# Chain of Aurora-C(h) (Q9UQB9 whole entry): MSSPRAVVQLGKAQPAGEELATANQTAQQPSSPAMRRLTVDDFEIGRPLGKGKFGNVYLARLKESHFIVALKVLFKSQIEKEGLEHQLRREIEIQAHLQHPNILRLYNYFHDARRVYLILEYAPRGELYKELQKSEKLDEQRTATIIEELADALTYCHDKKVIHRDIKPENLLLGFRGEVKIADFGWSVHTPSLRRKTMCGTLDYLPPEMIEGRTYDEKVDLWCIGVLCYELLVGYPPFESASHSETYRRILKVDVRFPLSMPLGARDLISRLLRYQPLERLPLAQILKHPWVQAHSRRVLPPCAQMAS
# CaMKIIα(h) = CaMKIIα(h) (Homo sapiens, UniProt Q9UQM7); assay: as above; format: biochemical; conditions: inhibitor at 1 μM; read-out: residual kinase activity in % of maximal activity
# Chain of CaMKIIα(h) (Q9UQM7 whole entry): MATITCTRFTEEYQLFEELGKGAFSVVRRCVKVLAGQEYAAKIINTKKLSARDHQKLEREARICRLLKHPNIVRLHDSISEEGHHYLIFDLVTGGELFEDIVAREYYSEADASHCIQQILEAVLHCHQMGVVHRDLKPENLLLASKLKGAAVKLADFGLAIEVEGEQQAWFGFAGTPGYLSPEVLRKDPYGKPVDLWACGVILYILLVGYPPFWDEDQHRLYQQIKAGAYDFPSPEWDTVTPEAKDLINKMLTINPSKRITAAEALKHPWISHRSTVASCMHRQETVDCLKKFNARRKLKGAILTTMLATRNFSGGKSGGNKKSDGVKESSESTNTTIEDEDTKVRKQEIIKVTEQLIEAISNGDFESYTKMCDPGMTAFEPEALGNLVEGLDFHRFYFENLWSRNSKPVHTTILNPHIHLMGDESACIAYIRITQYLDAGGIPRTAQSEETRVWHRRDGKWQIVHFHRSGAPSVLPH
# [1] = test system: CA1 LTP in CaMKIIα KO slices (mock); assay: LTP field recordings in slices of CaMKIIα KO mice injected with AAV-mScarlet (mock); format: cell-based, mouse; conditions: for fEPSP slope (normalized to baseline): individual slices, sheet 5b
# Method: (§1) Stereotactic injections were performed on P24 CaMKIIα KO mice. Animals were anesthetized with an intraperitoneal injection of 2,2,2-Tribromoethanol (250 mg kg^−1) and then head fixed to a stereotactic frame (David Kopf Instruments). AAVs (0.2–0.5 µl) were injected into intermediate CA1 at a rate of […] using a syringe pump (World Precision Instruments). Coordinates (in millimetres) were anterior–posterior: −3.17; mediolateral: ±3.45 (relative to Bregma); and dorsoventral: −2.5 (relative to pia). To confirm specificity of the injection site following LTP recordings, slices were fixed in 4% paraformaldehyde; then, they were coverslipped and imaged on an Olympus slide scanning microscope.
# (§2) WT and mutant mouse hippocampal slices were prepared using P56–P70 mice. Isoflurane-anesthetized mice were rapidly decapitated, and the brain was dissected in an ice-cold high-sucrose solution containing 220 mM sucrose, 12 mM MgSO4, 10 mM glucose, 0.2 mM CaCl2, 0.5 mM KCl, 0.65 mM NaH2PO4, 13 mM NaHCO3 and 1.8 mM ascorbate. Transverse hippocampal slices (400 μm) were made using a tissue chopper (McIlwain) and transferred into 32 °C ACSF containing 124 mM NaCl, 3.5 mM KCl, 1.3 mM NaH2PO4, 26 mM NaHCO3, 10 mM glucose, 2 mM CaCl2, 1 mM MgSO4 and 1.8 mM ascorbate. All slices were recovered in 95% O2/5% CO2 for at least 1.5 h before experimentation.
# (§3) For electrophysiological slice recording experiments, a glass micropipette (typical resistance of 0.4–0.8 megaohm when filled with ACSF) was used to record fEPSPs from the CA1 dendritic layer in response to stimulation of the Schaffer collaterals using a tungsten bipolar electrode. Slices were continually perfused with 30.5 °C ± 0.5 °C ACSF at a rate of 2.5 ± 0.5 ml min^−1 during recordings. Stimuli were delivered every 20 s, and three responses (1 min) were averaged for analysis. Data were analysed using WinLTP software with slope calculated as the initial rise from 10 to 60% of the response peak. Input–output curves were generated by increasing the stimulus intensity at a constant interval until a maximum response or population spike was noted to determine stimulation that elicits 50% of maximum slope. […] A stable baseline was acquired for a minimum of 20 min at 50% maximum slope before high-frequency stimulation (HFS; 2 × 100 Hz, 10 s interval) was applied. Responses were recorded for 40 or 60 min after HFS. Change in slope was calculated as a ratio of the average slope of the 20 min baseline (before HFS). Bar graphs of the percentage of fEPSP slope were calculated by averaging the last 10 min time points post-HFS and normalized to baseline.
# [2] = test system: CA1 LTP in CaMKII F89G-expressing slices; assay: LTP field recordings in slices of CaMKIIα KO mice injected with AAV-mScarlet-CaMKII-F89G; format: cell-based, mouse; conditions: for LTP time course, normalized response per slice (sheet 5d): individual slices, NM-PP1 vs Vehicle, in %
# Method: as §1, §2, §3
# [3] = test system: GFP–paCaMKII F89G in hippocampal neurons; assay: paCaMKII F89G photoactivation: synaptic enrichment in hippocampal neurons; format: cell-based
# Method: Neurons were wrapped in aluminium foil immediately following transfection and only exposed to red light in imaging. One image was then taken of each neuron to serve as a pre-photoactivation baseline. Immediately following this baseline image, paCaMKII was globally photoactivated with a 405 nm laser pulse (100 ms exposure, 75% laser power) once every 10 s for a total of 60 s. Neurons were then imaged 15 min after stimulation and assessed for CaMKII synaptic enrichment and dendritic spine growth.
# Neuronal cultures were transfected on DIV 15–18 and imaged 24–48 h later. […] Two-dimensional maximum-intensity projection images were then generated and analysed using a custom-build programme in ImageJ. The programme utilizes combinatorial thresholding to mask regions of the cell that contain high-intensity puncta of postsynaptic density protein 95 (PSD95; a marker of the post-synaptic side of excitatory synapses in dendritic spines) and regions of the dendritic shaft that contain no fluorescence intensity of PSD95. As a measure of synaptic enrichment, the ratio of mean CaMKII fluorescence intensity of the PSD95 mask to the mean CaMKII fluorescence intensity in the dendritic shaft mask is measured. Spine growth was assessed by measuring the changes in mCherry cell fill fluorescence intensity within dendritic spine divided by the initial fluorescence intensity (F/F0).
smiles,measurement,setting,value
NCCNc1cccc(-c2ccnc3[nH]c4ccccc4c23)c1 [AS283],remaining activity at 1 µM,AMPKα1(h),70%
same,remaining activity at 1 µM,CDK5/p35(h),33%
same,remaining activity at 1 µM,mTOR(h),115%
same,remaining activity at 1 µM,FGFR1(h),58%
same,remaining activity at 1 µM,CaMKIV(h),90%
same,remaining activity at 1 µM,CaMKI(h),107%
same,remaining activity at 1 µM,Aurora-C(h),63%
same,remaining activity at 1 µM,CaMKIIα(h),3%
CC(C)(C)n1nc(Cc2cccc3ccccc23)c2c(N)ncnc21 [NM-PP1],synaptic response 60 min following LTP induction (fEPSP slope normalized to baseline),"[1]; AAV-mScarlet (mock), 10 μM NM-PP1",102.757% and 115.997% and 130.031% and 114.245% and 91.515% and 129.007%
same,effect on residual LTP in control slices,[1]; NM-PP1,no effect
same,fEPSP slope (normalized to baseline),[1]; Time (min) 0,101.067 and 113.338 and 103.234 and 95.8969 and 93.1952 and 132.987
same,fEPSP slope (normalized to baseline),[1]; Time (min) 2.33333,249.911 and 143.318 and 169.121 and 175.176 and 145.841 and 156.755
same,fEPSP slope (normalized to baseline),[1]; Time (min) 4.33333,204.384 and 151.727 and 165.598 and 165.31 and 135.76 and 108.68
same,fEPSP slope (normalized to baseline),[1]; Time (min) 6.33333,189.169 and 150.265 and 135.884 and 160.117 and 120.975 and 129.276
same,fEPSP slope (normalized to baseline),[1]; Time (min) 8.33333,181.94 and 147.249 and 128.602 and 144.365 and 120.078 and 132.395
same,fEPSP slope (normalized to baseline),[1]; Time (min) 10.3333,172.351 and 139.799 and 136.941 and 133.459 and 110.893 and 130.889
same,fEPSP slope (normalized to baseline),[1]; Time (min) 12.3333,161.674 and 137.88 and 134.122 and 129.997 and 100.812 and 137.611
same,fEPSP slope (normalized to baseline),[1]; Time (min) 14.3333,174.774 and 134.406 and 129.19 and 125.67 and 98.5718 and 121.048
same,fEPSP slope (normalized to baseline),[1]; Time (min) 16.3333,159.559 and 133.63 and 131.891 and 126.189 and 89.1627 and 135.622
same,fEPSP slope (normalized to baseline),[1]; Time (min) 18.3333,153.964 and 134.681 and 128.015 and 124.631 and 95.4355 and 108.465
same,fEPSP slope (normalized to baseline),[1]; Time (min) 20.3333,149.095 and 132.944 and 120.851 and 126.189 and 102.828 and 98.3552
same,fEPSP slope (normalized to baseline),[1]; Time (min) 22.3333,149.671 and 128.922 and 119.442 and 125.843 and 91.627 and 123.092
same,fEPSP slope (normalized to baseline),[1]; Time (min) 24.3333,144.438 and 125.952 and 116.623 and 124.631 and 90.9549 and 132.503
same,fEPSP slope (normalized to baseline),[1]; Time (min) 26.3333,142.473 and 123.484 and 117.21 and 125.843
same,fEPSP slope (normalized to baseline),[1]; Time (min) -2,96.4978 and 115.989 and 102.999 and 98.6665 and 100.14 and 126.48
same,fEPSP slope (normalized to baseline),[1]; Time (min) -4,101.912 and 117.543 and 106.993 and 100.051 and 103.5 and 95.9353
same,fEPSP slope (normalized to baseline),[1]; Time (min) -6,102.969 and 117.634 and 102.06 and 101.09 and 99.2439 and 110.347
same,effect on LTP induction in CaMKII F89G slices,[2]; NM-PP1 10 μM,enabled
same,"LTP time course, normalized response per slice (sheet 5d)",[2]; Time (min) 0,103.829 and 96.437 and 102.744 and 120.959 and 123.914 and 192.297 and 144.344 and 104.217 and 103.642 and 100.747 and 103.258 and 105.141 and 101.674 and 96.3411 and 105.44
same,"LTP time course, normalized response per slice (sheet 5d)",[2]; Time (min) 2.33333,150.168 and 204.285 and 322.186 and 119.321 and 114.899 and 190.522 and 128.721 and 184.151 and 177.879 and 161.407 and 188.756 and 121.03 and 118.847 and 177.028 and 124.93
same,"LTP time course, normalized response per slice (sheet 5d)",[2]; Time (min) 4.33333,139.017 and 204.469 and 290.028 and 113.213 and 106.868 and 195.712 and 130.419 and 192.043 and 166.691 and 143.621 and 171.089 and 117.041 and 117.676 and 154.052 and 148.947
same,"LTP time course, normalized response per slice (sheet 5d)",[2]; Time (min) 6.33333,131.831 and 176.494 and 247.758 and 112.468 and 113.588 and 169.626 and 124.646 and 168.164 and 143.426 and 132.43
same,"LTP time course, normalized response per slice (sheet 5d)",[2]; Time (min) -2,105.316 and 104.903 and 86.159 and 100.7 and 102.934 and 111.991 and 100.871 and 90.8613 and 108.408 and 99.877 and 100.511 and 99.326 and 97.9659 and 101.831 and 107.897
same,"LTP time course, normalized response per slice (sheet 5d)",[2]; Time (min) -4,102.838 and 104.535 and 87.5747 and 99.3595 and 101.459 and 104.616 and 103.249 and 75.684 and 101.138 and 101.174 and 99.4129 and 111.767 and 97.478 and 110.855 and 98.9622
same,"LTP time course, normalized response per slice (sheet 5d)",[2]; Time (min) -6,101.103 and 99.9338 and 95.867 and 99.0615 and 102.77 and 102.977 and 108.004 and 99.3605 and 103.117 and 97.9481 and 103.441 and 114.539 and 103.918 and 97.8041 and 96.1755
same,CaMKII movement after photoactivation of paCaMKII F89G,[3]; NM-PP1 10 μM,enabled similar movement
same,synaptic enrichment after photoactivation (sheet 6e),"[3]; paCaMKII F89G + NM-PP1, individual neurons",1.231 and 1.446 and 1.136 and 1.385 and 1.127 and 1.67 and 1.6203 and 1.284 and 0.7763 and 1.224 and 1.168 and 1.296 and 1.013 and 0.919 and 1.131 and 1.135 and 1.776
